Results taken from US5006535A, “Substituted heterocylic 4-aminoquinoline derivatives as gastric acid secretion inhibitors” (Smith Kline & French Laboratories Ltd., priority 1988, dated 1991).

Legend:
H^+ K^+ ATPase = molecular target: T1, H^+ K^+ ATPase (Sus scrofa, UniProt P19156); experiment: H^+ K^+ ATPase Activity (K^+ -stimulated ATPase activity in lyophilised gastric vesicles); type: biochemical; settings: pig lyophilised gastric vesicles, pH 7.0, 37°, 30 minutes
T1 construct: Lyophilised gastric vesicles were prepared from pig fundic mucosa; from tissue; host or cells: pig fundic mucosa, lyophilised gastric vesicles
Method: The effects of a single high concentration (100 μM) of a compound of structure (I) on K-stimulated ATPase activity in lyophilised gastric vesicles was determined. Preferred compounds of structure (I) were also tested over a range of concentrations to determine IC50 values.
Lyophilised gastric vesicles were prepared from pig fundic mucosa after the method of Keeling et. al. (Biochem. Pharmacol., 34, 2967, 1985).
K^+ -stimulated ATPase activity was determined at 37° in the presence of the following: 10 mM Pipes/Tris buffer pH 7.0, 2 mM MgSO4, 1 mM KCl, 2 mM Na2 ATP and 3-6 μg protein/ml lyophilised gastric vesicles. After incubation for 30 minutes, the inorganic phosphate hydrolysed from ATP was determined by the method of Yoda and Hokin (Biochem. Biophys. Res. Commun. 40, 880, 1970).
Compounds of structure (I) were dissolved in dimethylsulphoxide which up to the highest concentration used had no effect on K^+ -stimulated ATPase activity.
The effect of the highest concentration of each compound of structure (I) on the recovery of a standard amount of inorganic phosphate was also determined.

[1] = system: pentagastrin stimulated gastric acid secretion; experiment: Rat Lumen Perfused Stomach (pentagastrin stimulated gastric acid secretion); type: in vivo; settings: for % inhibition of pentagastrin stimulated gastric acid secretion: i.v., 10 μmole/kg
Text: B. Rat Lumen Perfused Stomach (pentagastrin stimulated gastric acid secretion).
Using a modification of the procedure described by Ghosh & Schild (Br. J. Pharmacology, 13, 54, 1958), the compounds of the following examples were found on i.v. administration at a concentration of 10 μmole/kg to cause an inhibition of pentagastrin stimulated gastric acid secretion as indicated in the following table. Results are given as % inhibition at 10 μmole/kg or ED50 (μM/kg): […]

T1 sequence (P19156 2-1034 limits assumed): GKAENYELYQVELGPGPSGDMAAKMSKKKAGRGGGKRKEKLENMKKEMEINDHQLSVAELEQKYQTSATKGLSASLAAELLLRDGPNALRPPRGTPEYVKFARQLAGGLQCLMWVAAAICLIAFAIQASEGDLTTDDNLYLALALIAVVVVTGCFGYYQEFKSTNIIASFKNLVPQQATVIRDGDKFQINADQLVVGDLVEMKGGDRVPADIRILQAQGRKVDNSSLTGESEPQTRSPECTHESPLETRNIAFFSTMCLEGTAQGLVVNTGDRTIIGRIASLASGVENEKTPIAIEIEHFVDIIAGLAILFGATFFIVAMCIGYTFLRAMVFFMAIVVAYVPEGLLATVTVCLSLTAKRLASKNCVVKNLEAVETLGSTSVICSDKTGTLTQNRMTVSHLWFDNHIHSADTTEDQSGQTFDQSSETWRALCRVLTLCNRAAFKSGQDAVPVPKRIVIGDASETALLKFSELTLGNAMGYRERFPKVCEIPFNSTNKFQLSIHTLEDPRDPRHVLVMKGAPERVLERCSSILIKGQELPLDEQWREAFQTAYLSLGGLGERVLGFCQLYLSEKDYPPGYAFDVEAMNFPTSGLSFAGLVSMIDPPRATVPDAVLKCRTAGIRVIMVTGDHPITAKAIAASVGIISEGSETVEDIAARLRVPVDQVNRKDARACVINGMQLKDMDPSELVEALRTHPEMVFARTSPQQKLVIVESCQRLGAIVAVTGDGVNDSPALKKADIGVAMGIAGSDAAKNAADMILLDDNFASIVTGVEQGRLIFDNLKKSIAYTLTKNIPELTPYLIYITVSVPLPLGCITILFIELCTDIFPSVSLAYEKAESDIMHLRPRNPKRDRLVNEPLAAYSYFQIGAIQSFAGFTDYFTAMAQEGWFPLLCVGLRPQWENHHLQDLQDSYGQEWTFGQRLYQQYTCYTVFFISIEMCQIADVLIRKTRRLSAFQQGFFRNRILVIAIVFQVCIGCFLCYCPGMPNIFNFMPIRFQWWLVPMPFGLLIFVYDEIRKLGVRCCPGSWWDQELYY
T1 sequence (P18434 whole entry partner): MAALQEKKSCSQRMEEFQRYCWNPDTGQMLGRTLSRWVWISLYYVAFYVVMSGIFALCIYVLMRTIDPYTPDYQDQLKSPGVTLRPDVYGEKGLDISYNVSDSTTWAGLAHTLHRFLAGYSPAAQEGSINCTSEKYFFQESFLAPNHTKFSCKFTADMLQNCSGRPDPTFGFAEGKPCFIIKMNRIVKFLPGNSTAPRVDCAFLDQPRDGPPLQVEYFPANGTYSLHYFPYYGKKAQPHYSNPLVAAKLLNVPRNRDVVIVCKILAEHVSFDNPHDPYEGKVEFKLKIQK

| Structure (SMILES) | IC50 (H^+ K^+ ATPase) | % inhibition of pentagastrin stimulated gastric acid secretion [1] | ED50 ([1]; iv, read-out: ED50, inhibition of pentagastrin stimulated gastric acid secretion) |
| --- | --- | --- | --- |
| CCOC(=O)c1cnc2c(OC)cccc2c1Nc1cscc1OC [Example 5, Ethyl 8-methoxy-4-(4-methoxy-3-thienylamino)quinoline-3-carboxylate] | 3.4 µM | 41% | – |
| CCOC(=O)c1cnc2c(OC)cccc2c1Nc1cscc1C [Example 1, Ethyl 8-methoxy-4-(4-methyl-3-thienylamino)quinoline 3-carboxylate] | 0.53 µM | – | 4.62 µmol/kg |
| CCCC(=O)c1cnc2c(OC)cccc2c1Nc1sccc1C [Example 4, 3-Butyryl-4-(3-methyl-2-thienylamino)-8-methoxyquinoline] | 2.3 µM | 58% | – |
| CCCC(=O)c1cnc2c(OC)cccc2c1Nc1ccsc1C(=O)OC [Example 3] | – | 48% | – |
| CCCC(=O)c1cnc2c(OC)cccc2c1Nc1ccsc1CC [Example 2, 3-Butyryl-4-(2-ethyl-3-thienylamino)-8-methoxyquinoline] | 1.4 µM | 61% | – |
